Measured values reported in PMC6691349 (Frontiers in Chemistry, 2019).

Tests used:
[1] = target: T1, falcipain-2 (Plasmodium falciparum, UniProt Q8I6U4); assay: fluorometric Z-LR-AMC kinetic assay with refolded recombinant enzyme; global fit to competitive and Morrison equations; reversibility by rapid dilution; format: biochemical
T1 construct: gene FP2A

[2] = target: T1, falcipain-2; assay: fluorometric Z-LR-AMC kinetic assay with refolded recombinant enzyme; global fit to mixed inhibition model; format: biochemical
[3] = system: Cc1cc(=O)oc2cc(NC(=O)[C@H](CCCNC(=N)N)NC(=O)[C@H](CC(C)C)NC(=O)OCc3ccccc3)ccc12; assay: purified protein; details: accommodates completely within falcipain-2 active site

T1 sequence (Q8I6U4 244-484): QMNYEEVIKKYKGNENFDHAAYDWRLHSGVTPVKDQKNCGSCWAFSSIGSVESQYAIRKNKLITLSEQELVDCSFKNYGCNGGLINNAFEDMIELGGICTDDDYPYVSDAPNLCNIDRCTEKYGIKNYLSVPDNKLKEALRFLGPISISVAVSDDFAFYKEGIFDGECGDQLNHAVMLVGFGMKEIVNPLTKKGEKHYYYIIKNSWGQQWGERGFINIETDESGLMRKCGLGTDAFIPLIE

CC(C)(F)C[C@H](N[C@@H](c1ccc(-c2ccc(S(C)(=O)=O)cc2)cc1)C(F)(F)F)C(=O)NC1(C#N)CC1 [odanacatib]
Ki [1]: 0.0982 ± 0.0102 µM

C=C1c2cccc(O)c2C(=O)C2=C(O)[C@]3(O)C(=O)C(C(N)=O)=C(O)[C@@H](N(C)C)[C@@H]3[C@@H](O)[C@H]12 [methacycline]
Ki [2]: 84.4 ± 6.5 µM

falcipain-2 (Plasmodium falciparum 3D7)
Km [3]: 4.8 µM
